“Also recorded” adds a separate entry of the source.
What was measured:
[1] = test system: A375SM human metastatic melanoma cells; assay: A375SM orthotopic xenograft in Nude mice; format: in vivo
Procedure: Experiments were carried out to determine the in vivo effects of 3D1 mAb on primary melanoma. To this end, 500,000 C8161 cells were injected subcutaneously in Nude mice. Palpable tumors were then injected directly with either 700 μg of total 3D1 mAb or IgG control antibody (alternate day intratumoral injection of 100 μg over 14 days). Mice were then sacrificed and subcutaneous tumors harvested and processed as previously described. To evaluate the effect of 3D1 mAb in the presence of the BRAF(V600E) mutation, a third orthotopic xenograft model was established in Nude mice via subcutaneous injection of approximately 150,000 A375SM human metastatic melanoma cells. Mice were treated IP with 3D1 mAb or IgG control, as described above, or 3 mg/kg of dabrafenib.
Four micron thick, formalin fixed, paraffin embedded tissue sections were prepared and immunohistochemistry was carried out on a Dako Plus autostainer (DAKO, Inc, Carpenteria, Calif.). Following antigen retrieval and blocking steps, sections were incubated in primary antibody for 60 mins, followed by appropriate biotinylated secondary antibody (Biocare Medical, Conrad, Calif.), and then streptavidin-horseradish peroxidase (Thermo Scientific Lab Vision). Color was developed with 3,3′-diaminobenzidine substrate (Thermo Scientific Lab Vision) and sections were counterstained with hematoxylin (Biocare Medical, LLC). As a negative control, adjacent serial sections were incubated with species appropriate irrelevant IgG (Jackson ImmunoResearch Labs) at the same concentration as primary antibodies. Similar to the lung tumor burden evaluation described above, mean percentage of positive staining±SEM was determined by 2 different observers, each calculating the ratio of positive cells/total number of cells×100 for 4 separate high power fields (63× objective) from at least 2 different mice per group.

[2] = test system: A375SM human melanoma cell line; assay: Western blot of A375SM cells treated with BRAFi (dabrafenib) or 3D1; format: cell-based; details: 72 hr
Procedure: To determine the level of Nodal expression in brain, kidney, liver, pancreas, heart and skeletal muscle ready to use adult tissue extracts for Western blotting (WB) were purchased from Santa Cruz Biotechnology. For WB experiments of cell lines, whole cell lysates were prepared and quantified. SDS-PAGE gel electrophoresis and WB were performed using standard techniques. PVDF membranes were blocked in 5% non-fat milk or 5% BSA and antibodies diluted in either 5% non-fat milk or 5% bovine serum albumin overnight at 4° C., depending on the manufacturer's recommendations. Signal was detected using West Pico chemiluminescence reagent (Thermo Fisher) and exposure to x-ray film.

3D1 mAb = assay: ELISA epitope mapping and specificity assay of coated peptides probed with 3D1; format: binding, mouse; details: peptides coated at 1.0 μg/mL; 3D1 mAb 1.0 μg/mL
Procedure: Residues underlying the binding between 3D1 and Nodal were investigated by epitope mapping using a set of Nodal synthetic peptides (See FIG. 9). […] Peptides were immobilized at 1 μg/mL and probed with 3D1 at […]. Data were normalized to the binding of the peptide hNODAL (44-69) wild-type (WT). […] Most interactions were established with C43, P46, V47, E49, E50. The effect of Y58 can be on the conformation of the peptide.
Peptides used for the epitope mapping and for the specificity assay of the 3D1 mAb were coated at 1.0 μg/mL diluted in PBS; 3D1 mAb, dissolved in PBS, was used as primary antibody at 1.0 μg/mL.

endogenous Nodal = assay: Western blot competition between 3D1 antigen peptide and endogenous Nodal in human embryonic stem cell lysates; format: binding; details: 3D1 4 μg/mL, hNodal(44-56) 10 μg/mL; H9 and H14 hESC lysates
Procedure: Thirty micrograms of H9 and H14 human embryonic stem cell total protein lysates, obtained as previously described, were separated on a 15% SDS-PAGE gel under reducing conditions and the resolved proteins were transferred onto a PVDF membrane. 50 ng of rhNodal protein were used as positive control. A Western blotting procedure was conducted: membranes were blocked, then probed with the 3D1 alone at 4.0 μg/mL in 2.5% NFDM in TBS-T and with the 3D1 mAb at 4.0 μg/mL pre-incubated with its antigen, the hNodal(44-56) peptide at 10 μg/mL. […] Blots were developed with Enhanced Chemiluminescence Western Blot Substrate (Pierce, Rockford, Ill., USA) following the manufacturer's instructions and were acquired by using a Chemidoc XRS video densitometer (Bio-Rad, Hercules, Calif., USA).

ELISA signal for binding to 3D1 (3D1 mAb) | Molecule | mean percentage (±SEM) of nuclear P-Smad2 ([1]; IHC, N=4) | tumor volumes ([1]; after 8 days, vs IgG control) | Nodal expression [2] | ERK1/2 activity (P-ERK1/2) ([2]; dabrafenib 10 nM) | staining of endogenous Nodal by 3D1 after pre-incubation with the peptide (endogenous Nodal)
 | CC(C)(C)c1nc(-c2cccc(NS(=O)(=O)c3c(F)cccc3F)c2F)c(-c2ccnc(N)n2)s1 [dabrafenib] | 68.7%±6.3% | trend towards reduced tumor volumes | relatively unaffected; also recorded: only minimally affected | significantly reduced | 
bound with similar efficiency | CEGECPNPVGEEFHPTNHAYIQSLLKRYQPHRVPSTC [hNodal(39-75)] |  |  |  |  | 
strongest signal | PNPVGEEFHPTNH [hNodal(44-56)] |  |  |  |  | no longer detectable
